Measurements: article PMC3914206

Tests used:
Experiment in all cases: KiNativ chemical proteomics profiling in HeLa and PC3 cell lysates
Format in all cases: binding
[1] = molecular target: T1, selected panels of kinases in HeLa and PC3 cell lysates (Homo sapiens, UniProt O75716); details: 10 uM, peptide DLk[…], labeling site Lys2
T1 construct: endogenous in cells; host or cells: HeLa and PC3 cell lysates

[2] = molecular target: T2, selected panels of kinases in HeLa and PC3 cell lysates (Homo sapiens, UniProt P12931); details: 10 uM; SRC; peptide VAIk[…]; proteome PC3; labeling site Lys1
T2 construct: endogenous in cells; host or cells: HeLa and PC3 cell lysates
T2 sequence (P12931 whole entry): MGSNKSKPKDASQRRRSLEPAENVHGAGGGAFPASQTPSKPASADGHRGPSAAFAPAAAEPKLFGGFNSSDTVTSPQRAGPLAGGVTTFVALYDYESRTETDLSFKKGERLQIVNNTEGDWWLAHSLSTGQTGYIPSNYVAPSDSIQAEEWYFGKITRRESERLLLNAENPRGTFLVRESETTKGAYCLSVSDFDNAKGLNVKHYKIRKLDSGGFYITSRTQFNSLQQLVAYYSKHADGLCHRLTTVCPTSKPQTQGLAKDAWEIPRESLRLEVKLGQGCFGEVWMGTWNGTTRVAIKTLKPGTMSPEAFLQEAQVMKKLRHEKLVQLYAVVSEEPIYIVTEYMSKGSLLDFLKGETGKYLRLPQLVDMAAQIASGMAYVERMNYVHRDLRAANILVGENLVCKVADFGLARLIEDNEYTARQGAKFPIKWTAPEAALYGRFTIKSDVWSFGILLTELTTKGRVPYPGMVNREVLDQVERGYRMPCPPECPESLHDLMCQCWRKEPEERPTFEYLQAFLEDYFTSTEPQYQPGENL

[3] = molecular target: T3, selected panels of kinases in HeLa and PC3 cell lysates (Homo sapiens, UniProt P16591); details: 10 uM, peptide TSVAVk[…], labeling site Lys1
T3 construct: endogenous in cells; host or cells: HeLa and PC3 cell lysates
T3 sequence (P16591 whole entry): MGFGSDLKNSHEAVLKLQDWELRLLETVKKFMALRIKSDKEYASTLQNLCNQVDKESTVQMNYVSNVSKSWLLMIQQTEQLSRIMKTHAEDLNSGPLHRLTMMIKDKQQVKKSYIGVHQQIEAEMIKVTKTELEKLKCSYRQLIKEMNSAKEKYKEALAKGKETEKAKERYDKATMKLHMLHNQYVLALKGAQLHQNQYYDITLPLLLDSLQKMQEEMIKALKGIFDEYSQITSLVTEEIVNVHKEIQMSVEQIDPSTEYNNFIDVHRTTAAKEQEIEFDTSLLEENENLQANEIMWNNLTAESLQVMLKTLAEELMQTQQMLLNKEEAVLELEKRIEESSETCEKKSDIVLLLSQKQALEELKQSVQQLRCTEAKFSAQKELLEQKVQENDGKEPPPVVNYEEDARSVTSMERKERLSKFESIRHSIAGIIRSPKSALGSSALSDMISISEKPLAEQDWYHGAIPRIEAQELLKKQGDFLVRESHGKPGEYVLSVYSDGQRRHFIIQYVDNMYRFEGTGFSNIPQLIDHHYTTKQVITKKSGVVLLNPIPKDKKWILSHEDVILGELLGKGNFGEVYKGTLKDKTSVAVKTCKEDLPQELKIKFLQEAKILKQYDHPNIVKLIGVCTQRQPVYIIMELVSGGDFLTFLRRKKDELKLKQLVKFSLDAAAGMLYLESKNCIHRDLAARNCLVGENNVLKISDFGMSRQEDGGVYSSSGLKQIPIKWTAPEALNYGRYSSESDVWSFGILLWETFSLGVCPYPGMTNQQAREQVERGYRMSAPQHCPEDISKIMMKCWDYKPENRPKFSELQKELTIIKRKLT

[4] = molecular target: T4, selected panels of kinases in HeLa and PC3 cell lysates (Homo sapiens, UniProt P23443); details: 10 uM, peptide DLk[…], labeling site Lys2; for % Inhibition p70S6K: proteome PC3; for % Inhibiton, p70S6K: proteome HEL
T4 construct: endogenous in cells; host or cells: HeLa and PC3 cell lysates
T4 sequence (P23443 whole entry): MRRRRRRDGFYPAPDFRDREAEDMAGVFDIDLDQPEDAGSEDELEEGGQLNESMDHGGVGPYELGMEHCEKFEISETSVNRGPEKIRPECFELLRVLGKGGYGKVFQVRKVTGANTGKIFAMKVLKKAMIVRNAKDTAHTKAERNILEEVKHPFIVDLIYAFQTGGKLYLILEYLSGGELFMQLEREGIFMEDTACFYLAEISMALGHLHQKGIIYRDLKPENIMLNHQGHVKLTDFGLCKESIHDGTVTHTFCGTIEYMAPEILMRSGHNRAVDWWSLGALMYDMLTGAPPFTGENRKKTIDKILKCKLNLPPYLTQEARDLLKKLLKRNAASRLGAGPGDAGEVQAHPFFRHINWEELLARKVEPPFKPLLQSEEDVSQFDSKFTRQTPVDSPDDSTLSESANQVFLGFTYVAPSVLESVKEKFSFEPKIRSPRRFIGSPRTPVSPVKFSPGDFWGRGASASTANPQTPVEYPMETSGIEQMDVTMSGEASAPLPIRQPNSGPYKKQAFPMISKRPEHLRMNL

[5] = molecular target: T5, selected panels of kinases in HeLa and PC3 cell lysates (Homo sapiens, UniProt P48729); details: 10 uM; proteome PC3; peptide DIk[…]; labeling site Lys2
T5 construct: endogenous in cells; host or cells: HeLa and PC3 cell lysates
T5 sequence (P48729 whole entry): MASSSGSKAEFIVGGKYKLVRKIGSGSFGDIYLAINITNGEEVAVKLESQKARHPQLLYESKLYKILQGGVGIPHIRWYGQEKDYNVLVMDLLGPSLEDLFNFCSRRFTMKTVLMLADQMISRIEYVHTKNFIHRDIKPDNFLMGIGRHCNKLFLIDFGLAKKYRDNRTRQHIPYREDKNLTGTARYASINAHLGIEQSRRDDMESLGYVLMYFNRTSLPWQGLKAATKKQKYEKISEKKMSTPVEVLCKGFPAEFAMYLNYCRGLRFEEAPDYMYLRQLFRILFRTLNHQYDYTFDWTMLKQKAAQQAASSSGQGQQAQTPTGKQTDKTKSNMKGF

[6] = molecular target: T6, selected panels of kinases in HeLa and PC3 cell lysates (Homo sapiens, UniProt Q13464); details: 10 uM; ROCK1; peptide kLQLELNQER; proteome PC3; labeling site Other
T6 construct: endogenous in cells; host or cells: HeLa and PC3 cell lysates

[7] = molecular target: T7, selected panels of kinases in HeLa and PC3 cell lysates (Homo sapiens, UniProt Q15375); details: 10 uM; proteome PC3; peptide […]kIPVR; labeling site Activation Loop
T7 construct: endogenous in cells; host or cells: HeLa and PC3 cell lysates

[8] = molecular target: T8, selected panels of kinases in HeLa and PC3 cell lysates (Homo sapiens, UniProt Q15831); details: 10 uM, peptide DIk[…], labeling site Lys2
T8 construct: endogenous in cells; host or cells: HeLa and PC3 cell lysates
T8 sequence (Q15831 1-433): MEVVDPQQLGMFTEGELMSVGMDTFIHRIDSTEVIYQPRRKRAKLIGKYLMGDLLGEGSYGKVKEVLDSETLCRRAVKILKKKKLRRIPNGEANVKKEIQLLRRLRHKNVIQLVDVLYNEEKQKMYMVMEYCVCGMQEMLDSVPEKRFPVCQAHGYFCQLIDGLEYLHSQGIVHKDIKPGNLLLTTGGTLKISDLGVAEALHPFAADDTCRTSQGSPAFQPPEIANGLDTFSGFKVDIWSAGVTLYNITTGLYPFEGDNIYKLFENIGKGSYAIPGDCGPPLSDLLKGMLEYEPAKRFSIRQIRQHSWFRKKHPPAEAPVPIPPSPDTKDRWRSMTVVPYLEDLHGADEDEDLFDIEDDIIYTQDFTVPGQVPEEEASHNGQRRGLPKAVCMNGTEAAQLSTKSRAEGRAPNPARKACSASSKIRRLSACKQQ

[9] = molecular target: T9, selected panels of kinases in HeLa and PC3 cell lysates (Homo sapiens, UniProt Q96J92); details: 10 uM; Wnk4; peptide DLk[…]; proteome PC3; labeling site Lys2
T9 construct: endogenous in cells; host or cells: HeLa and PC3 cell lysates
T9 sequence (Q96J92 whole entry): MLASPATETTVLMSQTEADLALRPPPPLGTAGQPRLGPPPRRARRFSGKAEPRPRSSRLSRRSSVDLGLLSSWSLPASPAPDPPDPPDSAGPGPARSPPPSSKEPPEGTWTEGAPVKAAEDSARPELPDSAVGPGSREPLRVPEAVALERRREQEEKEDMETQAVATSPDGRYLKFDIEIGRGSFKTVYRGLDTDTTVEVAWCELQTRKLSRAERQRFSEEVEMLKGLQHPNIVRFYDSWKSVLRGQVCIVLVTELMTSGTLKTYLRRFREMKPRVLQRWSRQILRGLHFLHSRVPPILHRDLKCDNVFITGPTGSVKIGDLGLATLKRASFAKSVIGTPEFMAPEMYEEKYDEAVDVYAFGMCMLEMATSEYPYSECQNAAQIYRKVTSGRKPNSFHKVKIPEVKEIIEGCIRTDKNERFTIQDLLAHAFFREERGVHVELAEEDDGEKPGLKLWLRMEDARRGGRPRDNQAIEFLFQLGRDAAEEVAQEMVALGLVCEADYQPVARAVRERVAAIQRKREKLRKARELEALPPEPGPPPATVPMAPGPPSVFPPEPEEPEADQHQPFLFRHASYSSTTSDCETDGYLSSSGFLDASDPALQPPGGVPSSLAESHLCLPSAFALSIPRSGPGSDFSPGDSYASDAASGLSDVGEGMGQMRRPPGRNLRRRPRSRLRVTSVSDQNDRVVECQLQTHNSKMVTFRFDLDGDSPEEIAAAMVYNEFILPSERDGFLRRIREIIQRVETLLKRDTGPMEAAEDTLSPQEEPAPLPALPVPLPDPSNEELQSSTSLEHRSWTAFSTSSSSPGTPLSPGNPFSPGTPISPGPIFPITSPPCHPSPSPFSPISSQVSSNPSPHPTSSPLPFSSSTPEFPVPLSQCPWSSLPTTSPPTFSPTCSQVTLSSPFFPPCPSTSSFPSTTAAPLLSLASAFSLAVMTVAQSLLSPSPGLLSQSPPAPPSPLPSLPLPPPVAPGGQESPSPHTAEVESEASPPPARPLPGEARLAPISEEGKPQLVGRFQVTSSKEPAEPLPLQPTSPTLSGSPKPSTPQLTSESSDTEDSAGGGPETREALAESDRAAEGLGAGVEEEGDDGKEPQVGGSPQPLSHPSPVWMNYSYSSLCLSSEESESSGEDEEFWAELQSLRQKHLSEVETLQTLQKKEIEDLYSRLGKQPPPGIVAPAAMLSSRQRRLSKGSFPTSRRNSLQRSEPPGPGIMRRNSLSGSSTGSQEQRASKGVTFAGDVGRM

[10] = molecular target: T10, selected panels of kinases in HeLa and PC3 cell lysates (Homo sapiens, UniProt Q96PY6); details: 10 uM; proteome HEL; peptide DIkSQNIFLTK; labeling site Lys2
T10 construct: endogenous in cells; host or cells: HeLa and PC3 cell lysates

[11] = molecular target: T11, selected panels of kinases in HeLa and PC3 cell lysates (Homo sapiens, UniProt Q96S44); details: 10 uM, PRPK, peptide FLSGLELVkQGAEAR, labeling site ATP Loop
T11 construct: endogenous in cells; host or cells: HeLa and PC3 cell lysates
T11 sequence (Q96S44 1-253): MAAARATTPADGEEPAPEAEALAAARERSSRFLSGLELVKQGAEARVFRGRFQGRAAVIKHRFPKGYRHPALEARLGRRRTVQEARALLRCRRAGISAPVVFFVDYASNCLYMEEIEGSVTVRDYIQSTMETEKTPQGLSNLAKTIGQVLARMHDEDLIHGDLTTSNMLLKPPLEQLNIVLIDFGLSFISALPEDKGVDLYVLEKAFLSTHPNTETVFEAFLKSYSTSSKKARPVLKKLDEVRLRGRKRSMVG

[12] = molecular target: T12, selected panels of kinases in HeLa and PC3 cell lysates (Homo sapiens, UniProt Q9H2G2); details: 10 uM, SLK
T12 construct: endogenous in cells; host or cells: HeLa and PC3 cell lysates
T12 sequence (Q9H2G2 whole entry): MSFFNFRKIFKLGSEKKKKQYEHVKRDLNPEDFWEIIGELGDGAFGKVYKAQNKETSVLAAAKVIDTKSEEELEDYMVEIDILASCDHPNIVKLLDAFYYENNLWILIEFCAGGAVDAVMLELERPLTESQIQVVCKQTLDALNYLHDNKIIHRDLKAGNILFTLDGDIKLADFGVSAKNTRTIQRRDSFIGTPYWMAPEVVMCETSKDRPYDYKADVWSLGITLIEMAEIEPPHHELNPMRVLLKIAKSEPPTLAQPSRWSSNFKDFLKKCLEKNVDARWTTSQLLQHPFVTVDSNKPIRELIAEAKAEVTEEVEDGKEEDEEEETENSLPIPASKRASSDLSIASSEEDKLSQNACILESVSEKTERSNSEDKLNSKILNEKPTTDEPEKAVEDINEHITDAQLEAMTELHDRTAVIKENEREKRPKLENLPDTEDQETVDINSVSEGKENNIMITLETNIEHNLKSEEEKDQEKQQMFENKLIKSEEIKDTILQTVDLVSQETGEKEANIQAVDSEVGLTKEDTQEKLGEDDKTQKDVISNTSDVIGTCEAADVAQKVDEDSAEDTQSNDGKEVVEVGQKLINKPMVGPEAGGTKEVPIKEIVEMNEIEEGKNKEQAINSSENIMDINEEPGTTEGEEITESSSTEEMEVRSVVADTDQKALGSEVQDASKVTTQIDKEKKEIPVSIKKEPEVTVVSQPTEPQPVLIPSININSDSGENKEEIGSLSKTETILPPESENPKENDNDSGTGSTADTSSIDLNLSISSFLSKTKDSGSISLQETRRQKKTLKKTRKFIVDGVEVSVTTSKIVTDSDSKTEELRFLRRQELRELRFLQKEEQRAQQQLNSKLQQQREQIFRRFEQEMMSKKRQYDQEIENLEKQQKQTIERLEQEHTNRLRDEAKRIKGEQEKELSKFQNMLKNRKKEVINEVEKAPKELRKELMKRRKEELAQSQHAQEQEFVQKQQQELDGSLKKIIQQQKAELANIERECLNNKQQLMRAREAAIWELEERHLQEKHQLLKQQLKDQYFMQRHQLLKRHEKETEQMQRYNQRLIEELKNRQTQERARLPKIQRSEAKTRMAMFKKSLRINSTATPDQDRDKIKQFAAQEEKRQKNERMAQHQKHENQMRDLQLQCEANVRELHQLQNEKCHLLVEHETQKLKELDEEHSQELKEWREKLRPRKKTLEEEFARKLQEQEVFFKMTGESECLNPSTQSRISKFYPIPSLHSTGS

[13] = molecular target: T13, selected panels of kinases in HeLa and PC3 cell lysates (Homo sapiens, UniProt Q9UKI8); details: 10 uM, TLK1
T13 construct: endogenous in cells; host or cells: HeLa and PC3 cell lysates
T13 sequence (Q9UKI8 1-766): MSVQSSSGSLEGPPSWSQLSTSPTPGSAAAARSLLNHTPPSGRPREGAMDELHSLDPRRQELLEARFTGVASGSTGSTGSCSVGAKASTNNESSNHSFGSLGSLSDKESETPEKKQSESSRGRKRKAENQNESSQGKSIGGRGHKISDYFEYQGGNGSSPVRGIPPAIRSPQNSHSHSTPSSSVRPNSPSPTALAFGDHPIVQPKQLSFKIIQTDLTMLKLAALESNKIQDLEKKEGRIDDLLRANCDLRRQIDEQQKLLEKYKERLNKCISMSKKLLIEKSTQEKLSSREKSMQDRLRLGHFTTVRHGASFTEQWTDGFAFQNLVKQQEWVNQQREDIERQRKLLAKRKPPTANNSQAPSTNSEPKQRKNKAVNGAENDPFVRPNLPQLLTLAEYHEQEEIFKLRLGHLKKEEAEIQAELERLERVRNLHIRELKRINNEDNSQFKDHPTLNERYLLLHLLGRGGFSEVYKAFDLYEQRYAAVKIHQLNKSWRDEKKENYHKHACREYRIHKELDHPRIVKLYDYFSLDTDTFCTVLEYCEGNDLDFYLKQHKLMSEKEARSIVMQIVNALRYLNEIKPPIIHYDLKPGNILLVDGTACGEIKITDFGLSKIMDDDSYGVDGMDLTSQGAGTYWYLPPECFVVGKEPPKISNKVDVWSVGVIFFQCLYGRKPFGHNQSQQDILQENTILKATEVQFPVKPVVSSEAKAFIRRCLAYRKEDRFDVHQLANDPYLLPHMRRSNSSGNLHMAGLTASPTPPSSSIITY

[14] = peptide DLk[…], proteome HEL, labeling site Lys2
[15] = peptide DLk[…], proteome PC3, labeling site Lys2
[16] = peptide ETSVLAAAkVIDTK, proteome PC3, labeling site Lys1
[17] = peptide YAAVkIHQLNK, proteome HEL, labeling site Lys1
[18] = peptide YAAVkIHQLNK, proteome PC3, labeling site Lys1
[19] = peptide […]k[…], proteome HEL, labeling site Lys2
[20] = peptide […]k[…], proteome PC3, labeling site Lys2

T1 sequence (O75716 whole entry): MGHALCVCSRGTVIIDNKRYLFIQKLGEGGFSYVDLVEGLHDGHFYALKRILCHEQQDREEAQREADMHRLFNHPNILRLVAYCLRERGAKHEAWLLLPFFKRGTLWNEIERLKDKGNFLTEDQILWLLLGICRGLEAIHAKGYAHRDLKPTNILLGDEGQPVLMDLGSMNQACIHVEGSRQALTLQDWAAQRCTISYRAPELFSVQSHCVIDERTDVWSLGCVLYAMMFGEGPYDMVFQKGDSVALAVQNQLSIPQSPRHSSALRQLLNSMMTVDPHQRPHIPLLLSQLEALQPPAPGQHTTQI

In the case of `CCOc1cc(C(=O)N2CCC(N3CCN(C)CC3)CC2)ccc1Nc1ncc2c(n1)N(C1CCCC1)c1ccccc1C(=O)N2C` [Compound 26], the “% Inhibiton, MPSK1” value ([1]; proteome HEL) is reported as -9.4%, the “% Inhibiton, MPSK1” value ([1]; proteome PC3) is reported as 5.8% and the “% Inhibition SRC” value [2] is reported as 13.8%. The “% Inhibiton, FER” value ([3]; proteome HEL) was 24.7%, the “% Inhibiton, FER” value ([3]; proteome PC3) was 12% and the “% Inhibition p70S6K” value [4] was 10%. The “% Inhibiton, p70S6K” value [4] was -24.4%, the “% Inhibiton, CK1a” value [5] was -0.3% and the “% Inhibition ROCK1” value [6] was -8.1%. For the same compound, the “% Inhibiton, EphA7” value [7] was 8.5%, the “% Inhibiton, LKB1” value ([8]; proteome HEL) was 6.4% and the “% Inhibiton, LKB1” value ([8]; proteome PC3) was -0.8%. The “% Inhibition Wnk4” value [9] was -2.1%, the “% Inhibiton, NEK1” value [10] was 3% and the “% Inhibition PRPK” value ([11]; proteome HEL) was 9.6%. The “% Inhibition PRPK” value ([11]; proteome PC3) was -5.6%, the “% Inhibition SLK” value [12, 14] was 25.7% and the “% Inhibition SLK” value [12, 15] was 2.9%. For the same compound, the “% Inhibition SLK” value [12, 16] was -35.8%, the “% Inhibition TLK1” value [13, 17] was 35.7% and the “% Inhibition TLK1” value [13, 18] was 6.2%. For the same compound, the “% Inhibition TLK1” value [13, 19] was 3.6% and the “% Inhibition TLK1” value [13, 20] was 6.8%.
In the case of `COc1cc(C(=O)N2CCC(N3CCN(C)CC3)CC2)ccc1Nc1ncc2c(n1)N(C1CCCC1)c1ccccc1C(=O)N2C` [Compound 25, 11-cyclopentyl-2-((2-methoxy-4-(4-(4-methylpiperazin-1-yl)piperidine-1-carbonyl)phenyl)amino)-5-methyl-5H-benzo[e]pyrimido[5,4-b][1,4]diazepin-6(11H)-one], the “% Inhibiton, MPSK1” value ([1]; proteome HEL) is reported as 29.5%, the “% Inhibiton, MPSK1” value ([1]; proteome PC3) is reported as -4.3% and the “% Inhibition SRC” value [2] is reported as -3.4%. The “% Inhibiton, FER” value ([3]; proteome HEL) was 21.3%, the “% Inhibiton, FER” value ([3]; proteome PC3) was 28.9% and the “% Inhibition p70S6K” value [4] was 3.9%. The “% Inhibiton, p70S6K” value [4] was 16.9%, the “% Inhibiton, CK1a” value [5] was 9.4% and the “% Inhibition ROCK1” value [6] was -4.2%. The “% Inhibiton, EphA7” value [7] was -3.8%, the “% Inhibiton, LKB1” value ([8]; proteome HEL) was -0.266% and the “% Inhibiton, LKB1” value ([8]; proteome PC3) was -4.1%. The “% Inhibition Wnk4” value [9] was -16.3%, the “% Inhibiton, NEK1” value [10] was 14.7% and the “% Inhibition PRPK” value ([11]; proteome HEL) was -8.1%. For the same compound, the “% Inhibition PRPK” value ([11]; proteome PC3) was -11.3%, the “% Inhibition SLK” value [12, 14] was 10.4% and the “% Inhibition SLK” value [12, 15] was -11.4%. The “% Inhibition SLK” value [12, 16] was -17.6%, the “% Inhibition TLK1” value [13, 17] was -21.7% and the “% Inhibition TLK1” value [13, 18] was -9.7%. For the same compound, the “% Inhibition TLK1” value [13, 19] was -8.4% and the “% Inhibition TLK1” value [13, 20] was -12.2%.
